Data as given in PubChem BioAssay AID328 (DTP/NCI, 2004).
Inconclusive results and toxic doses are left out. How the source made its calls: active means survival T/C of 150% or more; inactive means T/C below 125% in these data.

System: BDF1 mice, P388 leukemia ip, median survival T/C
Assay: NCI In Vivo Anticancer Drug Screen. Data for tumor model P388 Leukemia (intraperitoneal) in B6D2F1 (BDF1) mice
Settings: endpoint: median survival time, higher = longer survival
In short: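 Vehicle-dosed animals serve as the reference; survival of compound-dosed, tumour-implanted mice is divided by it.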

[1] = dose: 100.0 mg/kg/injection, schedule: Q04DX003 (ip), vehicle: saline with Tween-80
[2] = dose: 200.0 mg/kg/injection, schedule: Q04DX003 (ip), vehicle: saline with Tween-80
[3] = dose: 400.0 mg/kg/injection, schedule: Q04DX003 (ip), vehicle: saline with Tween-80
[4] = dose: 50.0 mg/kg/injection, schedule: Q01DX009 (ip), vehicle: saline with Tween-80
[5] = dose: 100.0 mg/kg/injection, schedule: Q01DX009 (ip), vehicle: saline with Tween-80
[6] = dose: 200.0 mg/kg/injection, schedule: Q01DX009 (ip), vehicle: saline with Tween-80
[7] = dose: 25.0 mg/kg/injection, schedule: Q01DX009 (ip), vehicle: saline with Tween-80
[8] = dose: 100.0 mg/kg/injection, schedule: Q01DX009 (ip), vehicle: saline
[9] = dose: 100.0 mg/kg/injection, schedule: Q04DX003 (ip), vehicle: saline
[10] = dose: 200.0 mg/kg/injection, schedule: Q01DX009 (ip), vehicle: saline
[11] = dose: 200.0 mg/kg/injection, schedule: Q04DX003 (ip), vehicle: saline
[12] = dose: 400.0 mg/kg/injection, schedule: Q01DX009 (ip), vehicle: saline
[13] = dose: 400.0 mg/kg/injection, schedule: Q04DX003 (ip), vehicle: saline
[14] = dose: 12.5 mg/kg/injection, schedule: Q01DX009 (ip), vehicle: saline with Tween-80
[15] = dose: 100.0 mg/kg/injection, schedule: Q01DX009 (ip), vehicle: Klucel (hydroxypropylcellulose) (HPC)

Measured: T/C

C[n+]1cc2cc(O)c(O)cc2c2ccc3cc(O)c(O)cc3c21
inactive: dose: 20.0 mg/kg/injection, schedule: Q01DX009 (ip), vehicle: saline 104 % of control | dose: 40.0 mg/kg/injection, schedule: Q01DX009 (ip), vehicle: saline 96 % of control | dose: 80.0 mg/kg/injection, schedule: Q01DX009 (ip), vehicle: saline 91 % of control | dose: 120.0 mg/kg/injection, schedule: Q01DX009 (ip), vehicle: saline 86 % of control | dose: 240.0 mg/kg/injection, schedule: Q01DX009 (ip), vehicle: saline 106 % of control

O=C(Cc1ccc(F)cc1)c1ccccc1
inactive: [1] 88 % of control | [2] 111 % of control | [3] 105 % of control

O=C1NS(=O)(=O)c2ccccc21
inactive: [4] 100 % of control | [5] 90 % of control | [6] 103 % of control

COC(=O)C(F)C(Br)C(=O)OC (stereo not given)
inactive: [7] 113 % of control | [4] 115 % of control

N#CN=CN1CCN(c2ccccn2)CC1
inactive: [4] 91 % of control | [5] 90 % of control | [6] 93 % of control

O=C(Nc1ccc(Nc2ccncc2)cc1)c1ccc(Nc2ccnc3ccc([N+](=O)[O-])cc23)cc1[N+](=O)[O-]
inactive: dose: 12.5 mg/kg/injection, schedule: Q01DX009 (ip), vehicle: saline 93 % of control | dose: 50.0 mg/kg/injection, schedule: Q01DX009 (ip), vehicle: saline 88 % of control | dose: 50.0 mg/kg/injection, schedule: Q04DX003 (ip), vehicle: saline 111 % of control | [8] 91 % of control | [9] 105 % of control | [10] 98 % of control | [11] 93 % of control | [12] 119 % of control | [13] 88 % of control

Cc1ccc(N=NN(C)C)cc1
inactive: dose: 33.0 mg/kg/injection, schedule: Q01DX009 (ip), vehicle: saline with Tween-80 104 % of control | [4] 108 % of control

CCCC[N+](CC)(CC)CCCNC1=CC(=O)C(NCCC[N+](CC)(CC)CCCC)=CC1=O
inactive: dose: 0.39 mg/kg/injection, schedule: Q04DX002 (ip), vehicle: saline 105 % of control | dose: 0.78 mg/kg/injection, schedule: Q04DX002 (ip), vehicle: saline 105 % of control

C=CC(=O)NCCCCC(N)C(=O)O (stereo not given)
inactive: [14] 108 % of control | [7] 106 % of control | [4] 113 % of control

CN(C)C(=O)NNC(=O)N(C)C
inactive: [8] 104 % of control | [9] 100 % of control | [10] 95 % of control | [11] 100 % of control | [12] 95 % of control | [13] 100 % of control

CSCC(C(N)=O)c1cc(Cl)ccc1Cl (stereo not given)
inactive: dose: 25.0 mg/kg/injection, schedule: Q01DX009 (ip), vehicle: water 97 % of control | dose: 50.0 mg/kg/injection, schedule: Q01DX009 (ip), vehicle: water 103 % of control | [5] 100 % of control | dose: 100.0 mg/kg/injection, schedule: Q01DX009 (ip), vehicle: water 101 % of control | dose: 100.0 mg/kg/injection, schedule: Q04DX003 (ip), vehicle: water 95 % of control | dose: 200.0 mg/kg/injection, schedule: Q04DX003 (ip), vehicle: water 100 % of control | dose: 400.0 mg/kg/injection, schedule: Q04DX003 (ip), vehicle: water 100 % of control

COc1ccc(CCC(C(=O)O)c2ccc(OC)c(OC)c2)cc1OC (stereo not given)
inactive: dose: 45.0 mg/kg/injection, schedule: Q01DX009 (ip), vehicle: Klucel (hydroxypropylcellulose) (HPC) 95 % of control | dose: 65.0 mg/kg/injection, schedule: Q01DX009 (ip), vehicle: Klucel (hydroxypropylcellulose) (HPC) 90 % of control | [15] 95 % of control | dose: 150.0 mg/kg/injection, schedule: Q01DX009 (ip), vehicle: Klucel (hydroxypropylcellulose) (HPC) 90 % of control

C[C@H]1CCC/C=C/[C@@H]2C[C@H](O)C[C@H]2[C@H](O)/C=C/C(=O)O1
inactive: dose: 2.5 mg/kg/injection, schedule: Q01DX009 (ip), vehicle: Klucel (hydroxypropylcellulose) (HPC) 110 % of control | dose: 4.0 mg/kg/injection, schedule: Q01DX010 (ip), vehicle: other 90 % of control | dose: 5.0 mg/kg/injection, schedule: Q01DX009 (ip), vehicle: Klucel (hydroxypropylcellulose) (HPC) 106 % of control | dose: 8.0 mg/kg/injection, schedule: Q01DX010 (ip), vehicle: other 90 % of control | dose: 10.0 mg/kg/injection, schedule: Q01DX009 (ip), vehicle: Klucel (hydroxypropylcellulose) (HPC) 94 % of control | dose: 25.0 mg/kg/injection, schedule: Q01DX009 (ip), vehicle: Klucel (hydroxypropylcellulose) (HPC) 100 % of control | dose: 50.0 mg/kg/injection, schedule: Q01DX009 (ip), vehicle: Klucel (hydroxypropylcellulose) (HPC) 100 % of control | dose: 50.0 mg/kg/injection, schedule: Q04DX003 (ip), vehicle: Klucel (hydroxypropylcellulose) (HPC) 104 % of control | [15] 90 % of control | dose: 100.0 mg/kg/injection, schedule: Q04DX003 (ip), vehicle: Klucel (hydroxypropylcellulose) (HPC) 109 % of control

Cc1ccc(NC(=O)COc2cc(Cl)c(Cl)cc2Cl)cc1C
inactive: [1] 90 % of control | [2] 90 % of control | [3] 86 % of control

CC1=CC(=O)N(O)CCCC(N)C(=O)OCCC(C)=CC(=O)N(O)CCCC(N)C(=O)OCCC(C)=CC(=O)N(O)CCCC(N)C(=O)OCC1 (stereo not given)
inactive: dose: 3.0 mg/kg/injection, schedule: Q01DX009 (ip), vehicle: Klucel (hydroxypropylcellulose) (HPC) 89 % of control | dose: 6.0 mg/kg/injection, schedule: Q01DX009 (ip), vehicle: Klucel (hydroxypropylcellulose) (HPC) 87 % of control | dose: 12.0 mg/kg/injection, schedule: Q01DX009 (ip), vehicle: Klucel (hydroxypropylcellulose) (HPC) 87 % of control | dose: 24.0 mg/kg/injection, schedule: Q01DX009 (ip), vehicle: Klucel (hydroxypropylcellulose) (HPC) 92 % of control

C(=Nc1ccc(/C=C\c2ccnc3ccccc23)cc1)Nc1ccc(/C=C\c2ccnc3ccccc23)cc1
inactive: [14] 100 % of control | [7] 107 % of control | [4] 100 % of control | [6] 97 % of control
